Data on 22 compounds can be found in patent US9708286B2, “Ingenol-3-acylates III and ingenol-3-carbamates” (LEO Laboratories Limited, priority 2010, dated 2017).

Holding throughout (assay type): cell-based
In assay [1] the test system is PMN's (polymorphonuclear leukocytes). As to the kind of experiment: Neutrophil oxidative burst. Conditions: normalized to 5×10^−7 M PEP0005. A digest of the protocol: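 Human buffy-coat neutrophils (2.5×10^5/well) in HBSS with 0.1% BSA, 5 mM glucose treated with compound premixed with 10 μM hydroethidine for 40 min at RT; fluorescence read at 485/579 nm. Normalized to 5×10^−7 M PEP0005; Rel EC50 is midway between fitted top and bottom, Abs EC50 gives 50% of PEP0005 maximum.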

In a further assay the test system is HeLa cells. As to the kind of experiment: Necrosis assay. Conditions: Homo sapiens, HeLa, 0.5 h, read-out: HeLa necrosis EC50 range. The gist of the method:
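HeLa cells treated with compound at 10 μM to 400 μM (final) for 30 min at 37° C., viability then measured by PrestoBlue fluorescence (ex 535/em 630 nm). Normalized to 1% DMSO and 400 μM ingenol mebutate controls; AbsEC50 from four-parameter sigmoidal fit.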

The subject of assay [2] is Primary human epidermal keratinocytes, HeKa. As to the kind of experiment: HeKa cytokine release (IL-8). Conditions: read-out: HeKa cytokine release (IL-8) Rel EC50 range. A digest of the protocol:
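Seeded cells exposed to compound dilutions for 6 h at 37° C; IL-8 in supernatant quantified by MSD sandwich electrochemiluminescence immunoassay. Effects normalized to positive control (1.5×10^−7 M PEP0005), four-parameter sigmoidal fit; Rel EC50 is concentration midway between fitted top and bottom.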

The mark [3] stands for this setting: Leukocyte, 40 min, read-out: Neutrophil oxidative burst Rel EC50 range, PMN from buffy coats, 40 min at RT, hydroethidine fluorescence.

Where two headings read alike, the source gives them in different places. Where only a bound is given, the exact number is not on record here.

Take `CC1=C[C@]23C(=O)[C@@H](C=C(CO)[C@@H](O)[C@]2(O)[C@H]1OC(=O)c1c(-c2ccccc2C)cnn1C)[C@H]1[C@@H](C[C@H]3C)C1(C)C` [Compound 555, Ingenol 3-(4-(2-methylphenyl)-2-methyl-pyrazole-3-carboxylate)]: the half-maximal effective concentration (EC50) was under 20 nM in assay [1] (setting [3]); under 150000 nM in the assay with HeLa cells; under 20 nM in assay [2] (Homo sapiens, HEKa, 6 h).
Consider `CC1=C[C@]23C(=O)[C@@H](C=C(CO)[C@@H](O)[C@]2(O)[C@H]1OC(=O)N1CCCC(C)(C)C1)[C@H]1[C@@H](C[C@H]3C)C1(C)C` [Compound 713, Ingenol 3-(3,3-dimethyl-piperidine-1-carboxylate)], for which the EC50 in assay [1] (setting [3]) is 20 to 100 nM; in the assay with HeLa cells it was 150000 to 350000 nM; in assay [2] (Homo sapiens, HEKa, 6 h) it was under 20 nM.
`CC1=C[C@]23C(=O)[C@@H](C=C(CO)[C@@H](O)[C@]2(O)[C@H]1OC(=O)N1CCCC1C(F)(F)F)[C@H]1[C@@H](C[C@H]3C)C1(C)C` (single isomer, unassigned; isomer b) [Compound 741, Ingenol 3-(2-trifluoromethyl-pyrrolidine-1-carboxylate) (ISOMER B)]: the half-maximal effective concentration (EC50) in assay [1] (read-out: Neutrophil oxidative burst Rel EC50 range, PMN from buffy coats, 40 min at RT, hydroethidine fluorescence) was 20 to 100 nM; with HeLa cells, over 350000 nM; in assay [2] (HeKa cells, 6 h at 37° C., IL-8 by MSD assay, normalized to 1.5×10^−7 M PEP0005), 20 to 100 nM.
Turning to `CC1=C[C@]23C(=O)[C@@H](C=C(CO)[C@@H](O)[C@]2(O)[C@H]1OC(=O)N(C)c1ccc(C#N)cc1)[C@H]1[C@@H](C[C@H]3C)C1(C)C` [Compound 753, Ingenol 3-(N-(4-cyano-phenyl)-N-methyl-carbamate)], the EC50 is 20 to 100 nM in assay [1] (setting [3]); 150000 to 350000 nM with HeLa cells; 20 to 100 nM in assay [2] (Homo sapiens, HEKa, 6 h).
`CC1=C[C@]23C(=O)[C@@H](C=C(CO)[C@@H](O)[C@]2(O)[C@H]1OC(=O)N(C)c1cc(C)n(C)n1)[C@H]1[C@@H](C[C@H]3C)C1(C)C` [Compound 721, Ingenol 3-(N-(1,5-dimethylpyrazol-3-yl)-N-methyl-carbamate)]: the EC50 in assay [1] (setting [3]) was 20 to 100 nM; with HeLa cells it was over 350000 nM; in assay [2] (Homo sapiens, HEKa, 6 h), 20 to 100 nM.
Take `CC1=C[C@]23C(=O)[C@@H](C=C(CO)[C@@H](O)[C@]2(O)[C@H]1OC(=O)c1c(-c2ccccc2)nn(C)c1C)[C@H]1[C@@H](C[C@H]3C)C1(C)C` [Compound 559, Ingenol 3-(1,5-dimethyl-3-phenyl-pyrazole-4-carboxylate)]: the EC50 in assay [1] (setting [3]) is under 20 nM; in the assay with HeLa cells it was 150000 to 350000 nM; in assay [2] (Homo sapiens, HEKa, 6 h) it was under 20 nM.
Take `CC1=C[C@]23C(=O)[C@@H](C=C(CO)[C@@H](O)[C@]2(O)[C@H]1OC(=O)c1c(C)cn(CC2CC2)c1C)[C@H]1[C@@H](C[C@H]3C)C1(C)C` [Compound 588, Ingenol 3-(1-(cyclopropylmethyl)-2,4-dimethyl-pyrrole-3-carboxylate)]: the EC50 in assay [1] (setting [3]) was under 20 nM; in the assay with HeLa cells it was under 150000 nM; in assay [2] (Homo sapiens, HEKa, 6 h) it was under 20 nM.
Consider `CC1=C[C@]23C(=O)[C@@H](C=C(CO)[C@@H](O)[C@]2(O)[C@H]1OC(=O)c1c(C)nsc1C)[C@H]1[C@@H](C[C@H]3C)C1(C)C` [Compound 552, Ingenol 3-(3,5-dimethylisothiazole-4-carboxylate)], for which the EC50 in assay [1] (setting [3]) is 20 to 100 nM; in the assay on HeLa cells, 150000 to 350000 nM; in assay [2] (Homo sapiens, HEKa, 6 h), 20 to 100 nM.
Take `CC1=C[C@]23C(=O)[C@@H](C=C(CO)[C@@H](O)[C@]2(O)[C@H]1OC(=O)c1c(-c2ccccc2)noc1C)[C@H]1[C@@H](C[C@H]3C)C1(C)C` [Compound 502, Ingenol 3-(5-methyl-3-phenyl-isoxazole-4-carboxylate)]: the concentration for a half-maximal effect (EC50) is under 20 nM in assay [1] (setting [3]); under 150000 nM in the assay with HeLa cells; under 20 nM in assay [2] (Homo sapiens, HEKa, 6 h).
Turning to `CC1=C[C@]23C(=O)[C@@H](C=C(CO)[C@@H](O)[C@]2(O)[C@H]1OC(=O)N(C)c1cccc(F)c1)[C@H]1[C@@H](C[C@H]3C)C1(C)C` [Compound 718, Ingenol 3-(N-(3-fluoro-phenyl)-N-methyl-carbamate)], the EC50 is under 20 nM in assay [1] (setting [3]); 150000 to 350000 nM in the assay with HeLa cells; under 20 nM in assay [2] (Homo sapiens, HEKa, 6 h).
Consider `CC1=C[C@]23C(=O)[C@@H](C=C(CO)[C@@H](O)[C@]2(O)[C@H]1OC(=O)N(C)C1CC1)[C@H]1[C@@H](C[C@H]3C)C1(C)C` [Compound 723, Ingenol 3-(N-cyclopropyl-N-methyl-carbamate)], for which the EC50 in assay [1] (setting [3]) was under 20 nM; with HeLa cells it was over 350000 nM; in assay [2] (Homo sapiens, HEKa, 6 h) it was 20 to 100 nM.
The matching figures for `CC1=C[C@]23C(=O)[C@@H](C=C(CO)[C@@H](O)[C@]2(O)[C@H]1OC(=O)c1c(C)nc2sccn12)[C@H]1[C@@H](C[C@H]3C)C1(C)C` [Compound 534, Ingenol 3-(6-methylimidazo[2,1-b]thiazole-5-carboxylate)]: under 20 nM, 150000 to 350000 nM and under 20 nM.
For `CC1=C[C@]23C(=O)[C@@H](C=C(CO)[C@@H](O)[C@]2(O)[C@H]1OC(=O)c1c(Cl)cnn1C)[C@H]1[C@@H](C[C@H]3C)C1(C)C` [Compound 522, Ingenol 3-(4-chloro-2-methyl-pyrazole-3-carboxylate)], the EC50 in assay [1] (setting [3]) is under 20 nM; in the assay on HeLa cells, 150000 to 350000 nM; in assay [2] (Homo sapiens, HEKa, 6 h) it was under 20 nM.
As for `CC1=C[C@]23C(=O)[C@@H](C=C(CO)[C@@H](O)[C@]2(O)[C@H]1OC(=O)c1nonc1C)[C@H]1[C@@H](C[C@H]3C)C1(C)C` [Compound 567, Ingenol 3-(4-methyl-1,2,5-oxadiazole-3-carboxylate)], the EC50 is 20 to 100 nM in assay [1] (setting [3]); over 350000 nM in the assay on HeLa cells; over 100 nM in assay [2] (Homo sapiens, HEKa, 6 h).
Consider `CC1=C[C@]23C(=O)[C@@H](C=C(CO)[C@@H](O)[C@]2(O)[C@H]1OC(=O)C1N(C(=O)OC(C)(C)C)CCC1(C)C)[C@H]1[C@@H](C[C@H]3C)C1(C)C` (stereo partly drawn) [Compound 544, Ingenol 3-(1-tert-butyloxycarbonyl-3,3-dimethylpyrrolidine-2-carboxylate)], for which the EC50 in assay [1] (setting [3]) is over 100 nM; with HeLa cells, 150000 to 350000 nM; in assay [2] (Homo sapiens, HEKa, 6 h), over 100 nM.
As for `CC1=C[C@]23C(=O)[C@@H](C=C(CO)[C@@H](O)[C@]2(O)[C@H]1OC(=O)c1c(C)nsc1I)[C@H]1[C@@H](C[C@H]3C)C1(C)C` [Compound 553, Ingenol 3-(5-iodo-3-methyl-isothiazole-4-carboxylate)], the 50% effective concentration (EC50) in assay [1] (setting [3]) is under 20 nM; in the assay on HeLa cells it was 150000 to 350000 nM; in assay [2] (Homo sapiens, HEKa, 6 h), under 20 nM.
In the case of `CC1=C[C@]23C(=O)[C@@H](C=C(CO)[C@@H](O)[C@]2(O)[C@H]1OC(=O)N1CCNc2ccccc21)[C@H]1[C@@H](C[C@H]3C)C1(C)C` [Compound 744, Ingenol 3-(3,4-dihydro-2H-quinoxaline-1-carboxylate)], the 50% effective concentration (EC50) was in the range of 20 to 100 nM in assay [1] (setting [3]); 150000 to 350000 nM in the assay with HeLa cells; 20 to 100 nM in assay [2] (Homo sapiens, HEKa, 6 h).
For the compound `CC1=C[C@]23C(=O)[C@@H](C=C(CO)[C@@H](O)[C@]2(O)[C@H]1OC(=O)c1ncoc1-c1ccccc1)[C@H]1[C@@H](C[C@H]3C)C1(C)C` [Compound 516, Ingenol 3-(5-phenyloxazole-4-carboxylate)], the EC50 in assay [1] (setting [3]) is under 20 nM; in the assay on HeLa cells it was under 150000 nM; in assay [2] (Homo sapiens, HEKa, 6 h) it was 20 to 100 nM.
With `COCCn1cc(C)c(C(=O)O[C@H]2C(C)=C[C@]34C(=O)[C@@H](C=C(CO)[C@@H](O)[C@]23O)[C@H]2[C@@H](C[C@H]4C)C2(C)C)c1C` [Compound 589, Ingenol 3-(1-(2-methoxyethyl)-2,4-dimethyl-pyrrole-3-carboxylate)], the concentration giving a half-maximal response (EC50) was 20 to 100 nM in assay [1] (setting [3]); under 150000 nM with HeLa cells; under 20 nM in assay [2] (Homo sapiens, HEKa, 6 h).
With `CC1=C[C@]23C(=O)[C@@H](C=C(CO)[C@@H](O)[C@]2(O)[C@H]1OC(=O)c1cc(C)n(C2CC2)c1C)[C@H]1[C@@H](C[C@H]3C)C1(C)C` [Compound 578, Ingenol 3-(1-cyclopropyl-2,5-dimethyl-pyrrole-3-carboxylate)], the concentration giving a half-maximal response (EC50) in assay [1] (setting [3]) was under 20 nM; in the assay on HeLa cells, under 150000 nM; in assay [2] (Homo sapiens, HEKa, 6 h), under 20 nM.
Consider `CC1=C[C@]23C(=O)[C@@H](C=C(CO)[C@@H](O)[C@]2(O)[C@H]1OC(=O)c1nn(C)c2ccccc12)[C@H]1[C@@H](C[C@H]3C)C1(C)C` [Compound 506, Ingenol 3-(1-methylindazole-3-carboxylate)], for which the concentration for a half-maximal effect (EC50) in assay [1] (setting [3]) is under 20 nM; in the assay on HeLa cells, under 150000 nM; in assay [2] (Homo sapiens, HEKa, 6 h), under 20 nM.
Turning to `CC1=C[C@]23C(=O)[C@@H](C=C(CO)[C@@H](O)[C@]2(O)[C@H]1OC(=O)N1CCCc2ccccc21)[C@H]1[C@@H](C[C@H]3C)C1(C)C` [Compound 726, Ingenol 3-(3,4-dihydro-2H-quinoline-1-carboxylate)], the EC50 in assay [1] (setting [3]) is 20 to 100 nM; with HeLa cells it was under 150000 nM; in assay [2] (Homo sapiens, HEKa, 6 h), under 20 nM.

A word on the EC50: it is the midpoint of the concentration-response curve.
